Assay results published in article PMC6684654 (Nature Communications, 2019).
≈ marks a conversion by molar mass, not a printed value. Read-outs that look alike come from different tables or passages of the source.

Experiments:
E. coli ATCC25922 [1] = assay: MIC, broth microdilution; format: cell-based; details: Escherichia coli
From the text: (§1) MIC values were identified through microdilution in sterilized 96-well polypropylene microtiter plates according to the broth microdilution guideline of the Clinical and Laboratory Standards Institute[30]. The test medium was Mueller–Hinton broth (MHB), and the strain concentrations were adjusted to 5 × 10^5 CFU/mL.

E. coli ATCC35218 = assay: MIC, broth microdilution; format: cell-based; details: Escherichia coli
From the text: as §1

K. pneumoniae ATCC13883 [2] = assay: MIC, broth microdilution; format: cell-based; details: Klebsiella pneumoniae
From the text: as §1

NDM-1 E. coli XJ141015 [3] = assay: MIC, broth microdilution; format: cell-based; details: Escherichia coli, 16 h
From the text: as §1

NDM-1 E. coli XJ141026 [4] = assay: MIC, broth microdilution; format: cell-based; details: Escherichia coli, 16 h
From the text: as §1

NDM-1 E. coli XJ141047 [5] = assay: MIC, broth microdilution; format: cell-based; details: Escherichia coli, 16 h
From the text: as §1

[6] = tested on: NDM-1 K. pneumoniae XJ155017; assay: MIC, broth microdilution; format: cell-based; details: Klebsiella pneumoniae, 16 h
From the text: as §1

[7] = tested on: NDM-1 K. pneumoniae XJ155018; assay: MIC, broth microdilution; format: cell-based; details: Klebsiella pneumoniae, 16 h
From the text: as §1

[8] = tested on: NDM-1 K. pneumoniae XJ155019; assay: MIC, broth microdilution; format: cell-based; details: Klebsiella pneumoniae, 16 h
From the text: as §1

[9] = tested on: NDM-1 K. pneumoniae XJ155020; assay: MIC, broth microdilution; format: cell-based; details: Klebsiella pneumoniae, 16 h
From the text: as §1

E. coli ATCC25922 [10] = assay: Antibiotic susceptibility (MIC), automated identification system; format: cell-based; details: Supplementary Table 1; for MIC: Escherichia coli, ATCC25922
From the text: (§2) Clinical isolate strains were identified and screened by the Phoenix 100 automated bacterial identification system to rapidly detect antimicrobial resistance. Total DNA was extracted by the TIANamp Bacteria DNA Kit according to the manufacturer’s protocol. The presence of blaNDM-1 was confirmed using a diagnostic kit for NDM-1 (Puruikang Bio Inc., Shenzhen, China) based on fluorescent quantitative polymerase chain reaction assay. According to the instruction, Ct values of less than 37 were considered positive.

K. pneumoniae ATCC13883 [11] = assay: as above; format: cell-based; details: Supplementary Table 2; for MIC: Klebsiella pneumoniae, ATCC13883
From the text: as §2

NDM-1 E. coli XJ141015 [12] = assay: as above; format: cell-based; details: Supplementary Table 1; for MIC: Escherichia coli
From the text: as §2

NDM-1 E. coli XJ141026 [13] = assay: as above; format: cell-based; details: Supplementary Table 1; for MIC: Escherichia coli
From the text: as §2

NDM-1 E. coli XJ141047 [14] = assay: as above; format: cell-based; details: Supplementary Table 1; for MIC: Escherichia coli
From the text: as §2

[15] = tested on: NDM-1 K. pneumoniae XJ155017; assay: as above; format: cell-based; details: Supplementary Table 2; for MIC: Klebsiella pneumoniae
From the text: as §2

[16] = tested on: NDM-1 K. pneumoniae XJ155018; assay: as above; format: cell-based; details: Supplementary Table 2; for MIC: Klebsiella pneumoniae
From the text: as §2

[17] = tested on: NDM-1 K. pneumoniae XJ155019; assay: as above; format: cell-based; details: Supplementary Table 2; for MIC: Klebsiella pneumoniae
From the text: as §2

[18] = tested on: NDM-1 K. pneumoniae XJ155020; assay: as above; format: cell-based; details: Supplementary Table 2; for MIC: Klebsiella pneumoniae
From the text: as §2

NDM-1 = NDM-1 (Klebsiella pneumoniae, UniProt C7C422); assay: Zn2+ restoration assay; format: biochemical
Sequence of NDM-1 (C7C422 20-270, looked up, natural form): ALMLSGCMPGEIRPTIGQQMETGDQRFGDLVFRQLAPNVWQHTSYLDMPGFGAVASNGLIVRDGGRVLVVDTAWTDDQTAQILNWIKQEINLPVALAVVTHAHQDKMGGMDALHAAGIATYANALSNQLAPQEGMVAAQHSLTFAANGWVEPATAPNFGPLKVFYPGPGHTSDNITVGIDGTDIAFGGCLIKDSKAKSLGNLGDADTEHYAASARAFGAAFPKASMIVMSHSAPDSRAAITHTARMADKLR
Procedure: After incubating for 20 min at 30 °C, 50 μL of the mixture was added to the 96-well plate. […] The absorbance at 300 nm was monitored for 30 min at 30 °C. Percent residual activity was calculated from the thanatin-free control.

[19] = ATCC25922, MHB, 5 × 10^5 CFU/mL, 16 h, 37 °C, read-out: MIC
[20] = ATCC35218, MHB, 5 × 10^5 CFU/mL, 16 h, 37 °C, read-out: MIC
[21] = ATCC13883, MHB, 5 × 10^5 CFU/mL, 16 h, 37 °C, read-out: MIC
[22] = MHB, 5 × 10^5 CFU/mL, 37 °C, read-out: MIC

Compound: CO/N=C(\C(=O)N[C@@H]1C(=O)N2C(C(=O)O)=C(COC(C)=O)CS[C@H]12)c1csc(N)n1 [Cefotaxime]
- MIC (E. coli ATCC25922 [1]; ATCC25922, 16 h): < 0.125 mg/L
- MIC (E. coli ATCC35218; ATCC35218, 16 h): < 0.125 mg/L
- MIC (K. pneumoniae ATCC13883 [2]; ATCC13883, 16 h): < 0.125 mg/L
- MIC (NDM-1 E. coli XJ141015 [3]): > 256 mg/L
- MIC (NDM-1 E. coli XJ141026 [4]): > 256 mg/L
- MIC (NDM-1 E. coli XJ141047 [5]): > 256 mg/L
- MIC [6]: > 256 mg/L
- MIC [7]: > 256 mg/L
- MIC [8]: > 256 mg/L
- MIC [9]: > 256 mg/L
- MIC (E. coli ATCC25922 [10]): ≤ 1 mg/L
- susceptibility class (MIC) (E. coli ATCC25922 [10]): S
- MIC (K. pneumoniae ATCC13883 [11]): ≤ 1 mg/L
- susceptibility class (MIC) (K. pneumoniae ATCC13883 [11]): S
- MIC (NDM-1 E. coli XJ141015 [12]): > 32 mg/L
- susceptibility class (MIC) (NDM-1 E. coli XJ141015 [12]): R
- MIC (NDM-1 E. coli XJ141026 [13]): > 32 mg/L
- susceptibility class (MIC) (NDM-1 E. coli XJ141026 [13]): R
- MIC (NDM-1 E. coli XJ141047 [14]): > 32 mg/L
- susceptibility class (MIC) (NDM-1 E. coli XJ141047 [14]): R
- MIC [15]: > 32 mg/L
- susceptibility class (MIC) [15]: R
- MIC [16]: > 32 mg/L
- susceptibility class (MIC) [16]: R
- MIC [17]: > 32 mg/L
- susceptibility class (MIC) [17]: R
- MIC [18]: > 32 mg/L
- susceptibility class (MIC) [18]: R

Compound: CC(C)(O/N=C(\C(=O)N[C@@H]1C(=O)N2C(C(=O)[O-])=C(C[n+]3ccccc3)CS[C@H]12)c1csc(N)n1)C(=O)O [Ceftazidime]
- MIC (E. coli ATCC25922 [1]; [19]): < 0.125 mg/L
- MIC (E. coli ATCC35218; [20]): < 0.125 mg/L
- MIC (K. pneumoniae ATCC13883 [2]; [21]): < 0.125 mg/L
- MIC (NDM-1 E. coli XJ141015 [3]): > 256 mg/L
- MIC (NDM-1 E. coli XJ141026 [4]): > 256 mg/L
- MIC (NDM-1 E. coli XJ141047 [5]): > 256 mg/L
- MIC [6]: > 256 mg/L
- MIC [7]: > 256 mg/L
- MIC [8]: > 256 mg/L
- MIC [9]: > 256 mg/L
- MIC (E. coli ATCC25922 [10]): ≤ 1 mg/L
- susceptibility class (MIC) (E. coli ATCC25922 [10]): S
- MIC (K. pneumoniae ATCC13883 [11]): ≤ 1 mg/L
- susceptibility class (MIC) (K. pneumoniae ATCC13883 [11]): S
- MIC (NDM-1 E. coli XJ141015 [12]): > 16 mg/L
- susceptibility class (MIC) (NDM-1 E. coli XJ141015 [12]): R
- MIC (NDM-1 E. coli XJ141026 [13]): > 16 mg/L
- susceptibility class (MIC) (NDM-1 E. coli XJ141026 [13]): R
- MIC (NDM-1 E. coli XJ141047 [14]): > 16 mg/L
- susceptibility class (MIC) (NDM-1 E. coli XJ141047 [14]): R
- MIC [15]: > 16 mg/L
- susceptibility class (MIC) [15]: R
- MIC [16]: > 16 mg/L
- susceptibility class (MIC) [16]: R
- MIC [17]: > 16 mg/L
- susceptibility class (MIC) [17]: R
- MIC [18]: > 16 mg/L
- susceptibility class (MIC) [18]: R

Compound: Cc1onc(-c2ccccc2)c1C(=O)N[C@@H]1C(=O)N2[C@@H]1SC(C)(C)[C@@H]2C(=O)O [Oxacillin]
- MIC (E. coli ATCC25922 [1]; [19]): 64 mg/L (≈ 159 µM)
- MIC (E. coli ATCC35218; [20]): 256 mg/L (≈ 638 µM)
- MIC (K. pneumoniae ATCC13883 [2]; [21]): 64 mg/L (≈ 159 µM)
- MIC (NDM-1 E. coli XJ141015 [3]; [22]): > 256 mg/L
- MIC (NDM-1 E. coli XJ141026 [4]; [22]): > 256 mg/L
- MIC (NDM-1 E. coli XJ141047 [5]; [22]): > 256 mg/L
- MIC [6, 22]: > 256 mg/L
- MIC [7, 22]: > 256 mg/L
- MIC [8, 22]: > 256 mg/L
- MIC [9, 22]: > 256 mg/L

Compound: CCN1CCN(C(=O)N[C@@H](C(=O)N[C@@H]2C(=O)N3[C@@H]2SC(C)(C)[C@@H]3C(=O)O)c2ccccc2)C(=O)C1=O [Piperacillin]
- MIC (E. coli ATCC25922 [1]; [19]): 2 mg/L (≈ 3.86 µM)
- MIC (E. coli ATCC35218; [20]): > 256 mg/L
- MIC (K. pneumoniae ATCC13883 [2]; [21]): 8 mg/L (≈ 15.5 µM)
- MIC (NDM-1 E. coli XJ141015 [3]; [22]): > 256 mg/L
- MIC (NDM-1 E. coli XJ141026 [4]; [22]): > 256 mg/L
- MIC (NDM-1 E. coli XJ141047 [5]; [22]): > 256 mg/L
- MIC [6, 22]: > 256 mg/L
- MIC [7, 22]: > 256 mg/L
- MIC [8, 22]: > 256 mg/L
- MIC [9, 22]: > 256 mg/L
- MIC (E. coli ATCC25922 [10]): ≤ 4 mg/L
- susceptibility class (MIC) (E. coli ATCC25922 [10]): S
- MIC (K. pneumoniae ATCC13883 [11]): 8 mg/L (≈ 15.5 µM)
- susceptibility class (MIC) (K. pneumoniae ATCC13883 [11]): S
- MIC (NDM-1 E. coli XJ141015 [12]): > 64 mg/L
- susceptibility class (MIC) (NDM-1 E. coli XJ141015 [12]): R
- MIC (NDM-1 E. coli XJ141026 [13]): > 64 mg/L
- susceptibility class (MIC) (NDM-1 E. coli XJ141026 [13]): R
- MIC (NDM-1 E. coli XJ141047 [14]): > 64 mg/L
- susceptibility class (MIC) (NDM-1 E. coli XJ141047 [14]): R
- MIC [15]: > 64 mg/L
- susceptibility class (MIC) [15]: R
- MIC [16]: > 64 mg/L
- susceptibility class (MIC) [16]: R
- MIC [17]: > 64 mg/L
- susceptibility class (MIC) [17]: R
- MIC [18]: > 64 mg/L
- susceptibility class (MIC) [18]: R

Compound: O=S(=O)([O-])[O-].[Zn+2] [ZnSO4]
- NDM-1 residual activity % (NDM-1; ZnSO4 0.1 μM, replicate 1): 15.22%
- NDM-1 residual activity % (NDM-1; ZnSO4 0.1 μM, replicate 2): 16.97%
- NDM-1 residual activity % (NDM-1; ZnSO4 0.1 μM, replicate 3): 15.04%
- NDM-1 residual activity % (NDM-1; ZnSO4 1 μM, replicate 1): 27.47%
- NDM-1 residual activity % (NDM-1; ZnSO4 1 μM, replicate 2): 23.22%
- NDM-1 residual activity % (NDM-1; ZnSO4 1 μM, replicate 3): 15.46%
- NDM-1 residual activity % (NDM-1; ZnSO4 5 μM, replicate 1): 28.32%
- NDM-1 residual activity % (NDM-1; ZnSO4 5 μM, replicate 2): 25.17%
- NDM-1 residual activity % (NDM-1; ZnSO4 5 μM, replicate 3): 26.96%
- NDM-1 residual activity % (NDM-1; ZnSO4 10 μM, replicate 1): 32.34%
- NDM-1 residual activity % (NDM-1; ZnSO4 10 μM, replicate 2): 29.63%
- NDM-1 residual activity % (NDM-1; ZnSO4 10 μM, replicate 3): 36.06%
- NDM-1 residual activity % (NDM-1; ZnSO4 50 μM, replicate 1): 43.28%
- NDM-1 residual activity % (NDM-1; ZnSO4 50 μM, replicate 2): 51.47%
- NDM-1 residual activity % (NDM-1; ZnSO4 50 μM, replicate 3): 61.34%
- NDM-1 residual activity % (NDM-1; ZnSO4 100 μM, replicate 1): 56.06%
- NDM-1 residual activity % (NDM-1; ZnSO4 100 μM, replicate 2): 59.92%
- NDM-1 residual activity % (NDM-1; ZnSO4 100 μM, replicate 3): 88.19%
- NDM-1 residual activity % (NDM-1; ZnSO4 200 μM, replicate 1): 61.18%
- NDM-1 residual activity % (NDM-1; ZnSO4 200 μM, replicate 2): 100.32%
- NDM-1 residual activity % (NDM-1; ZnSO4 200 μM, replicate 3): 93.90%
- NDM-1 residual activity % (NDM-1; ZnSO4 400 μM, replicate 1): 95.69%
- NDM-1 residual activity % (NDM-1; ZnSO4 400 μM, replicate 2): 105.75%
- NDM-1 residual activity % (NDM-1; ZnSO4 400 μM, replicate 3): 98.26%
- NDM-1 residual activity % (NDM-1; ZnSO4 800 μM, replicate 1): 94.91%
- NDM-1 residual activity % (NDM-1; ZnSO4 800 μM, replicate 2): 111.23%
- NDM-1 residual activity % (NDM-1; ZnSO4 800 μM, replicate 3): 106.26%
